Measured values: patent EP4806899A1, “FUSED RING DERIVATIVE, PREPARATION METHOD THEREFOR AND USE THEREOF IN MEDICINE” (Shanghai Qilu Pharmaceutical Research and Development …, priority 2023, dated 2025)

Assay: in vivo
Conditions: rat, in vivo, po, 10 mg/kg
Procedure: Mice and rats were used as test animals to study the pharmacokinetic behavior of the compounds of the present disclosure in plasma following gavage administration (P.O.). Plasma samples were collected at specific time points, compound concentrations in plasma were detected by LC-MS/MS, and pharmacokinetic parameters were calculated to evaluate the pharmacokinetics.
• Mice, CD-1, male, Zhejiang Vital River Laboratory Animal Technology Co., Ltd. • Rats, Sprague-Dawley, male, Zhejiang Vital River Laboratory Animal Technology Co., Ltd., Shanghai Jihui Experimental Animal Breeding Co., Ltd.
After administration to mice and rats, venous blood samples of 0.03 mL and 0.2 mL, respectively, were collected at 0.0833 (IV), 0.25, 0.5, 1, 2, 4, 8, and 24 hours and placed in EDTA-K2 test tubes. Plasma was separated by centrifugation at 4 °C, 4000 g for 5 minutes and stored at -80 °C.
• 1) 50 µL of plasma sample was precipitated by adding 200 µL of acetonitrile, vortex mixed, and centrifuged for 15 minutes. • 2) The processed supernatant was diluted with water and analyzed by LC/MS/MS to determine the concentration of the test compound.
Pharmacokinetic parameters were calculated using WinNonlin 8.3. […] Cmax represents the maximum plasma concentration, T1/2 represents the terminal elimination half-life, MRTInf represents the mean residence time, and AUC represents the area under the plasma concentration-time curve.

CCC(=O)N[C@@H]1CCOc2c(-c3ccc4c(c3)CCC(=O)N4C)cncc21 [Compound A02-P2]
AUC(0-t) at 24 h: 190 µM·h | Cmax: 22.7 µM | MRT inf: 5.3 h | half-life: 3.47 h
